Laboratory results reported in the NIST ThermoML archive (doi:10.1021/je300590v).

Conditions: Vibrating tube method

O=C=O [carbon dioxide]
Conditions	mass density [kg/m3]
273.15 K, 1001 kPa, Gas	21.2
273.15 K, 2001 kPa, Gas	45.7
273.15 K, 3001 kPa, Gas	77.3
273.15 K, 3300 kPa, Gas	89.9
273.15 K, 3500 kPa, Liquid	928.1
273.15 K, 4001 kPa, Liquid	932.4
273.15 K, 5001 kPa, Liquid	940.7
273.15 K, 6000 kPa, Liquid	948.2
273.15 K, 7000 kPa, Liquid	955.3
273.15 K, 8003 kPa, Liquid	961.9
273.15 K, 9001 kPa, Liquid	968.1
273.15 K, 10002 kPa, Liquid	974.1
273.15 K, 11003 kPa, Liquid	979.7
273.15 K, 12000 kPa, Liquid	985.1
273.15 K, 13004 kPa, Liquid	990.1
273.15 K, 14002 kPa, Liquid	995
273.15 K, 15001 kPa, Liquid	999.7
273.15 K, 16002 kPa, Liquid	1004.3
273.15 K, 17000 kPa, Liquid	1008.6
273.15 K, 18001 kPa, Liquid	1012.8
273.15 K, 19001 kPa, Liquid	1017
273.15 K, 20000 kPa, Liquid	1020.8
283.15 K, 1000 kPa, Gas	20.4
283.15 K, 2001 kPa, Gas	43.1
283.15 K, 3001 kPa, Gas	70.9
283.15 K, 4000 kPa, Gas	108.4
283.15 K, 4400 kPa, Gas	130.1
283.15 K, 5001 kPa, Liquid	869.1
283.15 K, 6003 kPa, Liquid	882.2
283.15 K, 7000 kPa, Liquid	893.3
283.15 K, 8001 kPa, Liquid	903
283.15 K, 9001 kPa, Liquid	912.2
283.15 K, 10001 kPa, Liquid	920.4
283.15 K, 11001 kPa, Liquid	928.2
283.15 K, 12000 kPa, Liquid	935.5
283.15 K, 13001 kPa, Liquid	942.2
283.15 K, 14001 kPa, Liquid	948.3
283.15 K, 15000 kPa, Liquid	954.3
283.15 K, 16001 kPa, Liquid	960.1
283.15 K, 17001 kPa, Liquid	965.5
283.15 K, 18002 kPa, Liquid	970.8
283.15 K, 19001 kPa, Liquid	975.7
283.15 K, 20000 kPa, Liquid	980.4
293.15 K, 1011 kPa, Gas	19.8
293.15 K, 2001 kPa, Gas	41
293.15 K, 3001 kPa, Gas	66.2
293.15 K, 4000 kPa, Gas	97.3
293.15 K, 5000 kPa, Gas	140.4
293.15 K, 5600 kPa, Gas	182.2
293.15 K, 5800 kPa, Liquid	774.1
293.15 K, 6001 kPa, Liquid	783.3
293.15 K, 7003 kPa, Liquid	809.1
293.15 K, 8001 kPa, Liquid	827.5
293.15 K, 9002 kPa, Liquid	843.2
293.15 K, 10001 kPa, Liquid	856.1
293.15 K, 11001 kPa, Liquid	867.7
293.15 K, 12000 kPa, Liquid	877.9
293.15 K, 13000 kPa, Liquid	887.3
293.15 K, 14000 kPa, Liquid	895.9
293.15 K, 15003 kPa, Liquid	904
293.15 K, 16003 kPa, Liquid	911.5
293.15 K, 17001 kPa, Liquid	918.6
293.15 K, 18002 kPa, Liquid	925
293.15 K, 19002 kPa, Liquid	931.2
293.15 K, 20000 kPa, Liquid	937.1
